PubChem BioAssay AID790 (SRMLSC, 2007)
The source made the active and inactive calls. How the calls were made is not given here.

Key:
[1] = tested on: S. cerevisiae vps1Δ mutant growth inhibition; experiment: growth inhibition of yeast vps1Δ mutant, dose response, S. cerevisiae, background strain comparison (AID 790)
[2] = as above; conditions: S. cerevisiae vps1Δ mutant growth inhibition; measured here: background strain growth inhibition

In the case of `O=C(N/N=C/c1ccc([N+](=O)[O-])o1)c1cc(-c2cccc(Br)c2)nc2ccccc12`, the IC50 [1] is reported as 0.918 µM and the IC50 [2] is reported as 4.65 µM.
With `Cc1c(Cc2ccccc2)c(=O)oc2c(C)c(OCc3nn[nH]n3)ccc12` the IC50 [1] was > 10 µM (inactive) and the IC50 [2] was over 10 µM.
With `Cc1ccc(-c2csc3nnc(SCC(=O)Nc4cccc(C)n4)n23)cc1` the IC50 [1] was > 10 µM (inactive) and the IC50 [2] was over 10 µM.
Work on `O=C(Nc1nnc(-c2ccc3c(c2)CCCC3)o1)c1ccccc1Cl` yielded an IC50 [1] of 1.58 µM and an IC50 [2] of 10.7 µM.
For `CCCC(=O)N1CCN(c2ccc(NC(=O)c3cc4ccccc4o3)cc2Cl)CC1`, the IC50 [1] was > 10 µM (inactive) and the IC50 [2] was 19.2 µM.
For `COCCCNc1ccnc2c(Cl)cccc12`, the IC50 [1] was > 10 µM (inactive) and the IC50 [2] was over 10 µM.
With `CCc1cc2c(=O)c(Oc3ccccc3F)c(C)oc2c(CN(C)C)c1O` the IC50 [1] was > 10 µM (inactive) and the IC50 [2] was over 10 µM.
With `CCC(C)(C)NC(=O)CN(C(=O)CCC(=O)Nc1ccccn1)c1ccc(F)c(Cl)c1` the IC50 [1] was > 10 µM (inactive) and the IC50 [2] was over 10 µM.
For `COc1cc(CN2CCN(c3ccc(C)cc3)CC2)cc([N+](=O)[O-])c1O`, the IC50 [1] was > 10 µM (inactive) and the IC50 [2] was over 10 µM.
Compound `Cc1ccc(CSc2nc3ccccc3cc2C=O)cc1` has an IC50 [1] of 1.99 µM and an IC50 [2] of 2.1 µM.
With `Cc1ccc(/C=N/n2cnc3sc(-c4ccccc4)cc3c2=O)o1` the IC50 [1] was > 10 µM (inactive) and the IC50 [2] was over 10 µM.
With `Clc1cc(Br)ccc1OCCOCCN1CCOCC1` the IC50 [1] was > 10 µM (inactive) and the IC50 [2] was over 10 µM.
For `CCN(CC)C(=O)C1CCN(Cc2ccc(Br)cc2)CC1`, the IC50 [1] was > 10 µM (inactive) and the IC50 [2] was over 10 µM.
With `Cc1ccc(NS(=O)(=O)c2cc(C(=O)N3CCOCC3)ccc2C)cc1` the IC50 [1] was > 10 µM (inactive) and the IC50 [2] was over 10 µM.
With `CC(=O)Nc1ccccc1NS(=O)(=O)c1ccc(Cl)cc1` the IC50 [1] was > 10 µM (inactive) and the IC50 [2] was over 10 µM.
In the case of `Cc1ccc(C)c(NS(=O)(=O)c2cc(C(=O)N3CCc4ccccc4C3)ccc2Cl)c1`, the IC50 [1] is reported as > 10 µM (inactive) and the IC50 [2] is reported as 6.88 µM.
With `CCC(C)c1ccc(OCCCCN2CCOCC2)cc1` (stereo not given) the IC50 [1] was > 10 µM (inactive) and the IC50 [2] was over 10 µM.
With `Clc1ccc2[nH]c3c(NCC4CCCO4)ncnc3c2c1` (stereo not given) the IC50 [1] was > 10 µM (inactive) and the IC50 [2] was over 10 µM.
In the case of `COc1ccc(N2CCN(c3oc(-c4ccco4)nc3C#N)CC2)cc1`, the IC50 [1] is reported as > 10 µM (inactive) and the IC50 [2] is reported as over 10 µM.
For `COc1ccc(NC(=S)NC(NC(=O)c2ccc(Cl)cc2Cl)C(Cl)(Cl)Cl)c([N+](=O)[O-])c1` (stereo not given), the IC50 [1] was > 10 µM (inactive) and the IC50 [2] was over 10 µM.
With `CC(C)c1ccc(C2C3CSCC=C3C(C#N)=C(N)C2(C#N)C#N)cc1` (stereo not given) the IC50 [1] was 1.77 µM (inactive) and the IC50 [2] was 0.843 µM.
In the case of `CCCCCOc1ccc(CN2CCOCC2)cc1Cl`, the IC50 [1] is reported as > 10 µM (inactive) and the IC50 [2] is reported as over 10 µM.
For `CCCc1cc(NCCCCO)n2c(nc3ccccc32)c1C#N`, the IC50 [1] was > 10 µM (inactive) and the IC50 [2] was over 10 µM.
With `CC1CC(C)CN(CC(C)(C)NS(=O)(=O)c2ccc(Cl)cc2)C1` (stereo not given) the IC50 [1] was > 10 µM (inactive) and the IC50 [2] was over 10 µM.
In the case of `Cc1cc(C)n2nc(C(=O)NCc3ccccc3)cc2n1`, the IC50 [1] is reported as > 10 µM (inactive) and the IC50 [2] is reported as over 10 µM.
Compound `O=C(Nc1nnc(-c2ccccc2)o1)c1ccc(Cl)cc1` has an IC50 [1] of 0.418 µM and an IC50 [2] of 0.65 µM.
In the case of `O=C(CCC(=O)OCC(=O)c1ccc(F)cc1)NC1CCCCC1`, the IC50 [1] is reported as > 10 µM (inactive) and the IC50 [2] is reported as over 10 µM.
For `Cc1ccc(C(C)C)c(OCCCN2CC(C)OC(C)C2)c1` (stereo not given), the IC50 [1] was > 10 µM (inactive) and the IC50 [2] was over 10 µM.
With `O=C(Nc1cc(C(F)(F)F)ccc1-n1cncn1)c1ccc(-c2ccccc2)cc1` the IC50 [1] was > 10 µM (inactive) and the IC50 [2] was over 10 µM.
In the case of `COC(=O)c1ccc(CSc2nnc(NC(C)C)s2)cc1`, the IC50 [1] is reported as > 10 µM (inactive) and the IC50 [2] is reported as over 10 µM.
In the case of `CCCCC1(CCCC)C(=O)NC(=Nc2cccc(C)c2)NC1=O`, the IC50 [1] is reported as > 10 µM (inactive) and the IC50 [2] is reported as over 10 µM.
In the case of `CCN1CCN(c2c(Cl)cccc2NC(=O)c2ccc(Br)o2)CC1`, the IC50 [1] is reported as > 10 µM (inactive) and the IC50 [2] is reported as over 10 µM.
With `O=Cc1cc2ccccc2nc1SCc1ccc(Cl)cc1` the IC50 [1] was > 10 µM (inactive) and the IC50 [2] was over 10 µM.
With `O=C(Cn1nnc(-c2ccc(S(=O)(=O)N3CCCC3)cc2)n1)NCC1CCCO1` (stereo not given) the IC50 [1] was > 10 µM (inactive) and the IC50 [2] was over 10 µM.
With `CCc1n[nH]c2c1/C(=N\O)CC(C)(C)C2` the IC50 [1] was > 10 µM (inactive) and the IC50 [2] was over 10 µM.
With `O=C(c1ccco1)N1CCN(c2ncnc3c2[nH]c2ccccc23)CC1` the IC50 [1] was > 10 µM (inactive) and the IC50 [2] was over 10 µM.
In the case of `Cc1c(C)c2cc(Cl)c(O)c(CN3CCN(C)CC3)c2oc1=O`, the IC50 [1] is reported as > 10 µM (inactive) and the IC50 [2] is reported as over 10 µM.
With `c1ccc(Nc2cc(-c3ccccc3)nc3ncnn23)cc1` the IC50 [1] was 5.22 µM and the IC50 [2] was over 10 µM.
For `Cc1ccc2nc(C)cc(OCC(=O)O)c2c1`, the IC50 [1] was > 10 µM (inactive) and the IC50 [2] was over 10 µM.
In the case of `CC(=O)c1cnc2nc(C)nn2c1C`, the IC50 [1] is reported as > 10 µM (inactive) and the IC50 [2] is reported as over 10 µM.
In the case of `CCn1c(SCC(=O)N2CCCc3ccccc32)nnc1-c1ccco1`, the IC50 [1] is reported as > 10 µM (inactive) and the IC50 [2] is reported as over 10 µM.
With `CCCC(=O)Nc1ccc(Cl)c(NC(=O)c2cccnc2Cl)c1` the IC50 [1] was > 10 µM (inactive) and the IC50 [2] was over 10 µM.
For `COc1cccc(NC(=O)c2ccc(CN3CCN(c4ccccc4)CC3)cc2)c1`, the IC50 [1] was > 10 µM (inactive) and the IC50 [2] was over 10 µM.
With `Cc1ccc(S(=O)(=O)N2CCN(C3CCN(Cc4ccccc4)CC3)CC2)cc1` the IC50 [1] was > 10 µM (inactive) and the IC50 [2] was over 10 µM.
With `CCN(CC)CCn1nc(C)nc1-c1ccccc1O` the IC50 [1] was > 10 µM (inactive) and the IC50 [2] was over 10 µM.
In the case of `O=C1NC2(Nc3ccccc31)C(=O)Nc1ccccc12` (stereo not given), the IC50 [1] is reported as > 10 µM (inactive) and the IC50 [2] is reported as over 10 µM.
For `CC1CN(CC(O)COc2ccc(C(C)C)cc2)CC(C)O1` (stereo not given), the IC50 [1] was > 10 µM (inactive) and the IC50 [2] was over 10 µM.
In the case of `CCOc1ccc(NC(=O)C/C(N)=N/O)cc1`, the IC50 [1] is reported as > 10 µM (inactive) and the IC50 [2] is reported as over 10 µM.
In the case of `CN1C(=O)/C(=C/c2cccn2-c2ccc3ccccc3c2)C(=O)NC1=S`, the IC50 [1] is reported as 14.2 µM (inactive) and the IC50 [2] is reported as 6.58 µM.
`Clc1ccc(-c2n[nH]c3c2CCC3)cc1Cl` gave an IC50 [1] of 1.07 µM and an IC50 [2] of 1.81 µM.
For `Cc1nn(-c2ccccn2)c(C)c1Oc1ccccc1O`, the IC50 [1] was > 10 µM (inactive) and the IC50 [2] was over 10 µM.
In the case of `NC(=O)c1c(NC(=O)CN2C(=O)CCC2=O)sc2c1CCCCC2`, the IC50 [1] is reported as > 10 µM (inactive) and the IC50 [2] is reported as over 10 µM.
In the case of `CCOCCCNC(=O)C1CCN(C(=O)N(C)C)CC1`, the IC50 [1] is reported as > 10 µM (inactive) and the IC50 [2] is reported as over 10 µM.
For `C=CCc1ccccc1OCC(O)CN1CCN(Cc2ccc3c(c2)OCO3)CC1` (stereo not given), the IC50 [1] was > 10 µM (inactive) and the IC50 [2] was over 10 µM.
For `C=C(C)C1CC=C(CN2CCC(C(=O)OCC)CC2)CC1` (stereo not given), the IC50 [1] was > 10 µM (inactive) and the IC50 [2] was over 10 µM.
In the case of `O=C(NCc1ccc2c(c1)OCO2)c1ccc(-n2cnnn2)cc1`, the IC50 [1] is reported as > 10 µM (inactive) and the IC50 [2] is reported as over 10 µM.
With `COc1ccc(C(=O)Nc2ccc(Cl)cc2C(=O)N2CCCC(C)C2)cc1` (stereo not given) the IC50 [1] was > 10 µM (inactive) and the IC50 [2] was over 10 µM.
With `ON=Cc1cccn1-c1ccccc1` the IC50 [1] was > 10 µM (inactive) and the IC50 [2] was over 10 µM.
In the case of `CCn1c(=O)[nH]c2cc(C(=O)N3CCN(c4ccccc4)CC3)ccc2c1=O`, the IC50 [1] is reported as > 10 µM (inactive) and the IC50 [2] is reported as over 10 µM.
With `Cc1nc(NC(=O)c2ccccc2)sc1-c1csc(NCc2ccccc2)n1` the IC50 [1] was 1.96 µM and the IC50 [2] was over 10 µM.
